# US20230167505A1, “CIRCULATING TUMOR DNA AS A BIOMARKER FOR LEUKEMIA TREATMENT” (Cardiff Oncology, Inc., priority 2020, published 2023)
# Columns and labels:
# [1] = system: cell lines, both from solid as well as hematologic tumors; settings: large number of cell lines; cited from earlier work
# [2] = system: relapsed or refractory (R/R) AML; assay: Phase 1b antileukemic activity: bone marrow evaluation, response by modified International Working Group criteria 2003; assay type: in vivo, human; parameters: key to Clinical Response: NR = Non-responder; Responders were defined as patients achieving complete response (BM blasts <5%) with or without count recovery (CR+CRi); settings: for BM % Blasts Log2(C1/C0): end of cycle 1 vs screening
# Protocol: Treatment plan and study design: […] Antileukemic activity: […] Response to treatment was evaluated by the investigator using the modified International Working Group criteria 2003, detailed in Table 2. Antileukemic activity was assessed in all patients evaluable for DLTs.
# [3] = system: phosphorylation of the PLK1 substrate, TCTP; assay: Plasma inhibitory activity assay (pTCTP/TCTP in HL-60 cells incubated with patient plasma); assay type: cell-based
# Protocol: Plasma inhibitory activity assay: Onvansertib plasma inhibitory activity was assessed by measuring changes in the phosphorylation of the PLK1 substrate, TCTP, as described previously for FLT3 inhibitors. HL-60 cell line used for this assay was obtained from the ATCC and cultured in Iscove's modified Dulbecco's medium supplemented with 20% FBS. The cell line was not tested for Mycoplasma. Briefly, 3×10^6 HL-60 cells (passage 2-5) were incubated with 1 mL of patient plasma at 37° C. for 1 hour. Cells were washed, lysed, and changes in phosphorylated TCTP (pTCTP)/TCTP were assessed by immunoblot. […] For each dose level, 3-4 patients were analyzed (a total of 18 patients) on the basis of the availability of plasma samples, and each dose level included at least 1 patient of each arm (LDAC/decitabine). For each patient, pTCTP/TCTP level was quantified in cells incubated with plasma collected on day 1 at predose and postdose (tmax) and normalized to day 1 predose sample to measure the % pTCTP inhibition by onvansertib-containing plasma.
# Protein extract preparation and immunoblot: Protein extracts were prepared from PBMCs isolated from CellSave tube and from HL-60 cells using M-PER buffer with Protease and Phosphatase Inhibitor Cocktails (Thermo Fisher Scientific). Protein concentration was measured with the Pierce BCA Protein Assay Kit (Thermo Fisher Scientific). […]
# [4] = system: R/R AML; assay: Phase 2 anti-leukemic activity, onvansertib with decitabine; assay type: in vivo, human; settings: Phase 2, onvansertib 60 mg/m^2 + decitabine
# [5] = system: PLK1 substrate, TCTP; assay: Target engagement in circulating blasts (pTCTP/TCTP in PBMCs, predose vs 3 hours postdose); assay type: in vivo, human
# Protocol: Samples were analyzed with a FACSCanto II (BD Biosciences).
# Protein extract preparation and immunoblot: Protein extracts were prepared from PBMCs isolated from CellSave tube and from HL-60 cells using M-PER buffer with Protease and Phosphatase Inhibitor Cocktails (Thermo Fisher Scientific). Protein concentration was measured with the Pierce BCA Protein Assay Kit (Thermo Fisher Scientific). Western blots were performed as Simple Western Assays using the Wes System (ProteinSimple), a combination of capillary electrophoresis and immunodetection techniques, following the manufacturer's protocols. Primary antibodies were purchased from Cell Signaling Technology: phospho-TCTP-Ser46 (#5251) and TCTP (#5128). Quantitative analysis was performed using Compass Software (ProteinSimple). Signal intensity (area) of pTCTP was normalized to the peak area of TCTP and reported as pTCTP/TCTP or % pTCTP.
# Target engagement in blasts was determined by measuring relative pTCTP/TCTP protein levels in PBMCs isolated from patient blood prior to and 3 hours after the first dose of onvansertib (FIG. 8C).
# [6] = system: patients with advanced/metastatic solid tumors; settings: single agent, phase I; cited from earlier work
# [7] = 20 patients chosen for ctDNA analysis
structure (smiles),measurement,setting,value
"CN1CCN(c2ccc(OC(F)(F)F)c(Nc3ncc4c(n3)-c3c(c(C(N)=O)nn3CCO)CC4)c2)CC1 [onvansertib, 1-(2-hydroxyethyl)-8-{[5-(4-methylpiperazin-1-yl)-2-(trifluoromethoxy)phenyl]amino}-4,5-dihydro-1H-pyrazolo [4,3-h] quinazoline-3-carboxamide]",activity in proliferation assays,[1],low nanomolar activity
same,"Non-Responders, (%)",[2]; [7],70%
same,"Responders, (%)",[2]; [7],30%
same,patients with PR,[2]; LDAC arm,one
same,patients with ≥50% reduction in bone marrow blasts,"[2]; LDAC arm, 12 patients",25%
same,CRi rate,"[2]; LDAC arm, 15 patients",7%
same,Clinical Response,[2]; Patient 01-021,NR
same,BM % Blasts Log2(C1/C0),[2]; Patient 01-021,−0.8625
same,Clinical Response,[2]; Patient 01-024,NR
same,BM % Blasts Log2(C1/C0),[2]; Patient 01-024,−0.3219
same,Clinical Response,[2]; Patient 03-037,Responder
same,BM % Blasts Log2(C1/C0),[2]; Patient 03-037,0.8301
same,Clinical Response,[2]; Patient 05-016,NR
same,BM % Blasts Log2(C1/C0),[2]; Patient 05-016,3.0704
same,Clinical Response,[2]; Patient 05-030,Responder
same,BM % Blasts Log2(C1/C0),[2]; Patient 05-030,−2.0000
same,Clinical Response,[2]; Patient 05-043,NR
same,BM % Blasts Log2(C1/C0),[2]; Patient 05-043,−0.4150
same,Clinical Response,[2]; Patient 07-009,Responder
same,BM % Blasts Log2(C1/C0),[2]; Patient 07-009,−0.0468
same,Clinical Response,[2]; Patient 07-013,NR
same,Clinical Response,[2]; Patient 07-018,NR
same,Clinical Response,[2]; Patient 07-033,NR
same,Clinical Response,[2]; Patient 07-035,Responder
same,BM % Blasts Log2(C1/C0),[2]; Patient 07-035,−1.7370
same,Clinical Response,[2]; Patient 07-036,NR
same,BM % Blasts Log2(C1/C0),[2]; Patient 07-036,−1.0000
same,Clinical Response,[2]; Patient 08-027,NR
same,BM % Blasts Log2(C1/C0),[2]; Patient 08-027,−0.1043
same,Clinical Response,[2]; Patient 08-058,Responder
same,BM % Blasts Log2(C1/C0),[2]; Patient 08-058,0.9329
same,Clinical Response,[2]; Patient 09-026,NR
same,BM % Blasts Log2(C1/C0),[2]; Patient 09-026,0.3785
same,Clinical Response,[2]; Patient 09-032,NR
same,BM % Blasts Log2(C1/C0),[2]; Patient 09-032,0.1454
same,Clinical Response,[2]; Patient 09-064,Responder
same,BM % Blasts Log2(C1/C0),[2]; Patient 09-064,−3.9069
same,Clinical Response,[2]; Patient 11-019,NR
same,BM % Blasts Log2(C1/C0),[2]; Patient 11-019,0.0000
same,Clinical Response,[2]; Patient 11-040,NR
same,BM % Blasts Log2(C1/C0),[2]; Patient 11-040,0.4021
same,Clinical Response,[2]; Patient 12-041,NR
same,BM % Blasts Log2(C1/C0),[2]; Patient 12-041,0.6951
same,median duration of CR/CRi,[2]; decitabine arm,5.5 months
same,median number of cycles to achieve CR/CRi,[2]; decitabine arm,4 cycles
same,range of duration of CR/CRi,[2]; decitabine arm,1.5-11.5 months
same,range of number of cycles to achieve CR/CRi,[2]; decitabine arm,1-7 cycles
same,"Overall response rate (ORR: CR, CRi, MLFS, PR)",[2]; decitabine arm (7/21 patients),33%
same,patients with ≥50% reduction in bone marrow blasts,"[2]; decitabine arm, 18 patients with evaluable bone marrow biopsy",44%
same,patients with MLFS,"[2]; decitabine arm, Phase 1b",one
same,patients with PR,"[2]; decitabine arm, Phase 1b",one
same,CR/CRi rate,"[2]; decitabine arm, Phase 1b, 21 evaluable patients, all doses",24%
same,median number of cycles to achieve CR/CRi,[2]; responders of both arms (n=6),3 cycles
same,range of number of cycles to achieve CR/CRi,[2]; responders of both arms (n=6),1-7 cycles
same,pTCTP inhibition by patient plasma versus dose,[3]; plasma from all dose levels (12-60 mg/m^2),greater pTCTP inhibition at higher doses
same,pTCTP in HL-60 cells incubated with on-treatment plasma,"[3]; plasma of days 1 and 5, not with day 22 plasma (undetectable onvansertib)",reduced
same,CR/CRi rate,[4],17%
same,patients with target engagement (≥50% decrease in pTCTP/TCTP at 3 hours postdose versus predose),[5]; 24 evaluable patients with at least 10% circulating blasts,33%
same,patients with ≥20% decrease in bone marrow blasts,[5]; nontarget engagement patients (2 of 11),18%
same,patients with ≥20% decrease in bone marrow blasts,[5]; target engagement patients (4 of 6),67%
same,primary dose-limiting toxicities,[6],neutropenia and thrombocytopenia
same,recovery from hematologic toxicities,[6],≤ 3 weeks
